Test results as given in ChEMBL document CHEMBL1138495, “Inhibition of subgenomic hepatitis C virus RNA replication by acridone derivatives: identification of an NS3 helicase inhibitor” (J Med Chem, 2009).
In brackets after ≈: the same amount, converted by molar mass. Activity calls are given as the source filed them. No cut-off for these calls is given here.

Test system: Hepatitis C virus
Experiment: Antiviral activity against HCV infected in human HuH5.2 assessed as inhibition of viral RNA synthesis after 4 days by Steady-Glo-luciferase assay
Format: functional, organism-based, Hepacivirus hominis
Conditions: Huh-5-2, 96 h

Row | EC50 [µg/mL] | Structure (SMILES)
1 | 6 (≈ 13.5 µM) | COc1cc2c(=O)c3cc(N)c(N4CCN(c5ccccn5)CC4)cc3n(C)c2cc1OC
2 | 17 (≈ 35.9 µM) | CCCOc1cc(OC)cc2c1c(=O)c1cc(N)c(N3CCN(c4ccccn4)CC3)cc1n2C
3 | 10 (≈ 19.9 µM) | COc1cc(OC)c2c(=O)c3cc(N)c(N4CCN(c5ccccn5)CC4)cc3n(CCC(C)C)c2c1
4 | 4 (≈ 10.4 µM) | Cn1c2ccccc2c(=O)c2cc(N)c(N3CCN(c4ccccn4)CC3)cc21
5 | > 50 | COc1cc(OC)c2c(=O)cc(-c3ccc(N4CCN(c5ccccn5)CC4)c(N)c3)n(C)c2c1
6 | 18 (≈ 59.9 µM) | COc1cc(O)c2c(=O)c3cc(N)c(OC)cc3n(C)c2c1
7 | 16 (≈ 33.7 µM) | COc1cc(OC)c2c(=O)c3cc(N)c(N4CCN(c5ccccc5OC)CC4)cc3n(C)c2c1
8 | > 50 | COc1cc(OC)c2c(=O)c3cc(F)c(N4CCN(c5ccccn5)CC4)cc3n(C)c2c1
9 | 4.5 (≈ 14.1 µM) | CCn1c2cc(Cl)c(N)cc2c(=O)c2c(O)cc(OC)cc21
10 | > 50 | COc1cc(OC)cc(N(C)c2cc(N3CCN(c4ccccn4)CC3)c(N)cc2C(=O)O)c1
11 | 4 (≈ 9.27 µM) | COc1cc(OC)c2c(=O)c3cc(N)c(N4CCN(c5ccccn5)CC4)cc3[nH]c2c1
12 | 12.5 (≈ 30.1 µM) | COc1cccc2c1c(=O)c1cc(N)c(N3CCN(c4ccccn4)CC3)cc1n2C

Test system: Hepacivirus hominis
Experiment: Inhibition of HCV recombinant NS5B RNA polymerase expressed in Escherichia coli up to 100 uM by liquid scintillation counter
Conditions: not given

Row | Activity | Structure (SMILES)
13 | inactive | COc1cc2c(=O)c3cc(N)c(N4CCN(c5ccccn5)CC4)cc3n(C)c2cc1OC
14 | inactive | CCCOc1cc(OC)cc2c1c(=O)c1cc(N)c(N3CCN(c4ccccn4)CC3)cc1n2C
15 | inactive | COc1cc(OC)c2c(=O)c3cc(N)c(N4CCN(c5ccccn5)CC4)cc3n(CCC(C)C)c2c1
16 | inactive | Cn1c2ccccc2c(=O)c2cc(N)c(N3CCN(c4ccccn4)CC3)cc21
17 | inactive | COc1cc(OC)c2c(=O)cc(-c3ccc(N4CCN(c5ccccn5)CC4)c(N)c3)n(C)c2c1
18 | inactive | COc1cc(O)c2c(=O)c3cc(N)c(OC)cc3n(C)c2c1
19 | inactive | COc1cc(OC)c2c(=O)c3cc(N)c(N4CCN(c5ccccc5OC)CC4)cc3n(C)c2c1
20 | inactive | COc1cc(OC)c2c(=O)c3cc(F)c(N4CCN(c5ccccn5)CC4)cc3n(C)c2c1
21 | inactive | CCn1c2cc(Cl)c(N)cc2c(=O)c2c(O)cc(OC)cc21
22 | inactive | COc1cc(OC)cc(N(C)c2cc(N3CCN(c4ccccn4)CC3)c(N)cc2C(=O)O)c1
23 | inactive | COc1cc(OC)c2c(=O)c3cc(N)c(N4CCN(c5ccccn5)CC4)cc3[nH]c2c1
24 | inactive | COc1cccc2c1c(=O)c1cc(N)c(N3CCN(c4ccccn4)CC3)cc1n2C

Test system: not listed separately
Experiment: Cytostatic activity against human HuH5.2 after 3 days by MTS/PMS assay
Format: ADME, Huh-5-2
Conditions: HuH5.2 cells

Row | Structure (SMILES) | CC50 at 72 h [µg/mL]
25 | COc1cc2c(=O)c3cc(N)c(N4CCN(c5ccccn5)CC4)cc3n(C)c2cc1OC | 14 (≈ 31.4 µM)
26 | CCCOc1cc(OC)cc2c1c(=O)c1cc(N)c(N3CCN(c4ccccn4)CC3)cc1n2C | > 50
27 | COc1cc(OC)c2c(=O)c3cc(N)c(N4CCN(c5ccccn5)CC4)cc3n(CCC(C)C)c2c1 | 10 (≈ 19.9 µM)
28 | Cn1c2ccccc2c(=O)c2cc(N)c(N3CCN(c4ccccn4)CC3)cc21 | 29 (≈ 75.2 µM)
29 | COc1cc(OC)c2c(=O)cc(-c3ccc(N4CCN(c5ccccn5)CC4)c(N)c3)n(C)c2c1 | > 50
30 | COc1cc(O)c2c(=O)c3cc(N)c(OC)cc3n(C)c2c1 | > 50
31 | COc1cc(OC)c2c(=O)c3cc(N)c(N4CCN(c5ccccc5OC)CC4)cc3n(C)c2c1 | > 50
32 | COc1cc(OC)c2c(=O)c3cc(F)c(N4CCN(c5ccccn5)CC4)cc3n(C)c2c1 | > 50
33 | CCn1c2cc(Cl)c(N)cc2c(=O)c2c(O)cc(OC)cc21 | > 50
34 | COc1cc(OC)cc(N(C)c2cc(N3CCN(c4ccccn4)CC3)c(N)cc2C(=O)O)c1 | > 50
35 | COc1cc(OC)c2c(=O)c3cc(N)c(N4CCN(c5ccccn5)CC4)cc3[nH]c2c1 | 19 (≈ 44 µM)
36 | COc1cccc2c1c(=O)c1cc(N)c(N3CCN(c4ccccn4)CC3)cc1n2C | 28.5 (≈ 68.6 µM)

Test system: not listed separately
Experiment: Inhibition of ATPase activity of HCV […] expressed in Escherichia coli
Design: species or system Hepacivirus hominis
Conditions: not given

Row | IC50 [µM] | Structure (SMILES)
37 | > 1000 | COc1cc2c(=O)c3cc(N)c(N4CCN(c5ccccn5)CC4)cc3n(C)c2cc1OC
38 | > 1000 | CCCOc1cc(OC)cc2c1c(=O)c1cc(N)c(N3CCN(c4ccccn4)CC3)cc1n2C
39 | > 1000 | COc1cc(OC)c2c(=O)c3cc(N)c(N4CCN(c5ccccn5)CC4)cc3n(CCC(C)C)c2c1
40 | > 1000 | Cn1c2ccccc2c(=O)c2cc(N)c(N3CCN(c4ccccn4)CC3)cc21
41 | > 1000 | COc1cc(OC)c2c(=O)cc(-c3ccc(N4CCN(c5ccccn5)CC4)c(N)c3)n(C)c2c1
42 | > 1000 | COc1cc(O)c2c(=O)c3cc(N)c(OC)cc3n(C)c2c1
43 | > 1000 | COc1cc(OC)c2c(=O)c3cc(N)c(N4CCN(c5ccccc5OC)CC4)cc3n(C)c2c1
44 | > 1000 | COc1cc(OC)c2c(=O)c3cc(F)c(N4CCN(c5ccccn5)CC4)cc3n(C)c2c1
45 | > 1000 | CCn1c2cc(Cl)c(N)cc2c(=O)c2c(O)cc(OC)cc21
46 | > 1000 | COc1cc(OC)cc(N(C)c2cc(N3CCN(c4ccccn4)CC3)c(N)cc2C(=O)O)c1
47 | > 1000 | COc1cc(OC)c2c(=O)c3cc(N)c(N4CCN(c5ccccn5)CC4)cc3[nH]c2c1
48 | > 1000 | COc1cccc2c1c(=O)c1cc(N)c(N3CCN(c4ccccn4)CC3)cc1n2C
